According to US20090084024A1, “TRAP OR DISPENSER” (EXOSECT LIMITED, priority 2006, published 2009):

Key:
[1] = Pheromone content of carnauba wax cubes after manufacture and 1 month storage (Soxhlet extraction, Gas Chromatography); format: physicochemical; conditions: 12 mm carnauba wax cubes with 5 mg codlemone
Description: Carnauba wax was melted in a pan on a hot plate at 105° C. and was poured into […] mould blocks. Theses were allowed to cool and were weighed, giving an average of 1.4 g per block. From this, it was calculated that 50 mg of codlemone should be added to every 14 g of molten carnauba wax to make ten […] cubes each containing 5 mg. These cubes were made using technical grade 99% pure Codlemone (E,E)-8,10-Dodecadien-1-ol (E8E10-120H) sourced from Bedoukian Research Inc., Danbury, Conn., US and the cubes were then cooled and stored in heat sealed aluminum sachets in a freezer for 1 month. They were then removed from the freezer and the pheromone was extracted from each cube by Soxhlet extraction with ethanol and analyzed by Gas Chromatography.

[2] = Release from two phase 100% carnauba wax lures in Eppendorf tubes (entrainment system, GC/GC-MS, wind tunnel ageing); format: physicochemical; conditions: two-layer carnauba wax; wind tunnel 5 km/h, 27° C.; retested over 20 days; FIG. 1
Description: In this experiment Eppendorf tubes were filled with two layers of molten carnauba wax containing different concentrations of Codlemone (E,E)-8,10-Dodecadien-1-ol (E8E10-120H). […] In the lower part of the tube, 0.75 cm^3 of molten carnauba wax containing 5 mg of codlemone and the above compounds was poured in and allowed to solidify. The next step was to add a 0.25 cm^3 cap of molten carnauba wax with 1 mg of codlemone and the above compounds to the top of the solid wax. The concept behind this experiment was that the upper layer would reduce the initial surge of pheromone that is an unwanted characteristic of all known lures when opened for the first time. The hope was that by putting a low dose in the upper layer, the initial surge would be smaller and as the pheromone in this low dose layer disappeared it would be replaced by a steady flow of pheromone permeating through it from the higher concentration layer beneath.
The lures were formulated and immediately frozen and stored in impermeable aluminum sachets until they were placed into an entrainment system comprising a sealed glass sample chamber and an adsorbent tube filled with Porapak Q, obtained from Supelco, Bellefonte, Pa. Semiochemical(s) released over 2-hour intervals were transferred to the adsorbent by use of a vacuum pump, and eluted for GC/GC-MS analysis using dichloromethane. […]

For `C/C=C/C=C/CCCCCCCO` [Codlemone, (E,E)-8,10-Dodecadien-1-ol], the “lost during manufacturing, storage for 1 month and analysis” value [1] was 2.5% and the “initial loading remaining in the cubes” value ([1]; average, stored in heat sealed aluminum sachets in a freezer for 1 month) was 97.5%.

For `CCCCCCCCCCCCC` [Tridecane (13:HC), Tridecane], the “release rate of compounds from the Eppendorf wax lures” value [2] was “releases much more quickly than Decyl Acetate (10:Ac)”.
